Test results as given in patent US7163952B2, “Azole compound and medicinal use thereof” (Japan Tobacco Inc., priority 2001, dated 2007).

Key:
[1] = molecular target: T1, recombinant human protein tyrosine phosphatase 1B (Homo sapiens, UniProt P18031); experiment: Protein tyrosine phosphatase 1B inhibitory action (malachite green, phosphorylated insulin receptor peptide substrate); format: biochemical; details: recombinant human PTP1B, 60 min room temperature, absorbance at 650 nm
T1 construct: purchased UBI
T1 sequence (P18031 1-435): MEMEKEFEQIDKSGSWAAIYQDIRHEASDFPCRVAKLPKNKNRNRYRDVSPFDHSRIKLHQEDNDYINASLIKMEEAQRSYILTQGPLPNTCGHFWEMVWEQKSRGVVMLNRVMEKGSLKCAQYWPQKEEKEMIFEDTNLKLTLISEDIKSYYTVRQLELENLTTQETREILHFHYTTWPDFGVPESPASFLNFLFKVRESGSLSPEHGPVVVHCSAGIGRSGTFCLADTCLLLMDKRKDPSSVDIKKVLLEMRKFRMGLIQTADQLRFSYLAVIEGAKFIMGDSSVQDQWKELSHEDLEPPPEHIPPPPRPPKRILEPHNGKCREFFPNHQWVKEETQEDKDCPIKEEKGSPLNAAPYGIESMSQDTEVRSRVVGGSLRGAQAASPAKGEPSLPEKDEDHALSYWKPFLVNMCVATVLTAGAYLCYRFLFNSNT
Description: Preparation of Assay Buffer:
50 mM Tris-HCl buffer (pH 7.5), and 50 mM NaCl and 3 mM dithiothreitol (DTT) were prepared.
Respective 10 mM DMSO solutions of 0.1, 0.3, 1, 3 and 10 μM test compounds were diluted with the above-mentioned assay buffer so that the final dimethyl sulfoxide (DMSO) concentration would be not more than 1%. As a control, an assay buffer was used.
Preparation of Substrate:
A synthetic peptide consisting of 12 amino acids corresponding to 1142nd–1153rd of insulin receptor sequence, wherein three tyrosines therein had been phosphorylated, was diluted with the above-mentioned assay buffer to 80 μM.
A recombinant human protein tyrosine phosphatase 1B (manufactured by UBI) was diluted with the above-mentioned assay buffer (1.2 ng/25 μl).
A sample (10 μl) and a substrate (25 μl) prepared as mentioned above were successively added to a 96 well plate, and an enzyme (25 μl) prepared as mentioned above was added and mixed. After incubation at room temperature for 60 min., malachite green (120 μl, Biomol), which is a phosphorus color fixing agent, was added, and the mixture was further incubated at room temperature for 20 min. to allow color development. The absorbance at 650 nm was measured on a plate reader, and the protein tyrosine phosphatase 1B inhibitory action of the test compound was evaluated.

male ob/ob mice = experiment: Hypoglycemic action in ob/ob mice, oral administration; format: in vivo; details: Mus musculus, fasting, 3 hr after administration, relative to control group, read-out: Decrease in blood glucose level (%) 3 hr; for inhibition in vivo at 0.3 mg/kg: dose 0.3 mg/kg oral; for inhibition in vivo at 1 mg/kg: dose 1 mg/kg oral; for inhibition in vivo at 3 mg/kg: dose 3 mg/kg oral
Description: A 0.5% methyl cellulose suspension of the test compound was orally administered to male ob/ob mice (6 to 9 weeks old) grouped based on blood glucose level. A 0.5% methyl cellulose solution alone was administered to a control group.
The blood was drawn from the orbital vein with anesthesia at 3 hours after the administration. The blood was drawn under fasting by removing the feed immediately before test compound administration. The blood thus drawn was separated by centrifugation and the blood glucose level was measured from the obtained plasma according to the hexokinase method (glucose measure kit). For evaluation, decrease in the blood glucose level of the test compound administration group relative to the control group was shown in percentage.

IC50 [1] [µM] | melting point | SMILES | inhibition in vivo at 0.3 mg/kg (male ob/ob mice) [%] | inhibition in vivo at 1 mg/kg (male ob/ob mice) [%] | inhibition in vivo at 3 mg/kg (male ob/ob mice) [%]
0.32 | – | CN(Cc1ccc(C2CCCCC2)cc1)c1ccc(-c2csc(N(C)Cc3ccc(C(=O)O)cc3)n2)cc1 [Example 1, 4-(N-(4-(4-(N-(4-cyclohexylbenzyl)-N-methylamino)phenyl)-2-thiazolyl)-N-methylaminomethyl)benzoic acid] | 35 | 35 | 35
0.5 | – | CN(c1ccc(C(=O)O)cc1)c1nc(-c2ccc(NCc3ccc(C4CCCCC4)cc3)cc2)cs1 [Example 3, 4-(N-(4-(4-(4-cyclohexylbenzylamino)phenyl)-2-thiazolyl)-N-methylamino)benzoic acid] | – | 27 | 35
0.48 | 184 °C (dec.) | CN(Cc1ccc(C(=O)O)cc1)c1nc(-c2ccc(NCc3ccc(C4CCCCC4)cc3)cc2)cs1 [Example 115, 4-((N-(4-(4-(4-cyclohexylbenzylamino)phenyl)-2-thiazolyl)-N-methylamino)methyl)benzoic acid] | – | – | 34
0.11 | 210 to 213 °C | CN(Cc1ccc(C2CCC(Cl)(Cl)CC2)cc1)c1ccc(-c2csc(N(C)Cc3ccc(C(=O)O)cc3)n2)cc1 [Example 208, 4-((N-(4-(4-(N-(4-(4,4-dichlorocyclohexyl)benzyl)-N-methylamino)phenyl)-2-thiazolyl)-N-methylamino)methyl)benzoic acid] | – | – | 21
0.49 | 190 to 193 °C | CN(Cc1ccc(C2CCC(F)(F)CC2)cc1)c1ccc(-c2csc(N(C)Cc3ccc(C(=O)O)cc3)n2)cc1 [Example 209, 4-((N-(4-(4-(N-(4-(4,4-difluorocyclohexyl)benzyl)-N-methylamino)phenyl)-2-thiazolyl)-N-methylamino)methyl)benzoic acid] | – | – | 20
0.11 | 155 to 158 °C | CN(Cc1ccc(C2CCC(C)(C)CC2)cc1)c1ccc(-c2csc(N(C)Cc3ccc(C(=O)O)cc3)n2)cc1 [Example 215, 4-((N-(4-(4-(N-(4-(4,4-dimethylcyclohexyl)benzyl)-N-methylamino)phenyl)-2-thiazolyl)-N-methylamino)methyl)benzoic acid] | -9 | 32 | 39
– | 132 to 134 °C | CC(C)CSc1ccc(CN(C)c2ccc(-c3csc(N(C)Cc4ccc(C(=O)O)cc4)n3)cc2)cc1 [Example 245, 4-((N-(4-(4-(N-(4-isobutylsulfanylbenzyl)-N-methylamino)phenyl)-2-thiazolyl)-N-methylamino)methyl)benzoic acid] | – | – | –
– | 104 to 105 °C | CN(Cc1ccc(C(=O)OC2OC(=O)c3ccccc32)cc1)c1nc(-c2ccc(OCc3ccc(C4CCCCC4)cc3)cc2)cs1 (centres unmarked) [Example 248, 3-oxo-1,3-dihydroisobenzofuran-1-yl 4-((N-(4-(4-(4-cyclohexylbenzyloxy)phenyl)-2-thiazolyl)-N-methylamino)methyl)benzoate] | – | – | –
– | 117 to 118 °C | CCOC(=O)c1ccc(CN(C)c2nc(-c3ccc(OCc4ccc(C5CCCCC5)cc4)cc3)cs2)cc1 [Example 249, ethyl 4-((N-(4-(4-(4-cyclohexylbenzyloxy)phenyl)-2-thiazolyl)-N-methylamino)methyl)benzoate] | – | – | –
– | 88 to 90 °C | CN(Cc1ccc(C(=O)OCOC(=O)C(C)(C)C)cc1)c1nc(-c2ccc(OCc3ccc(C4CCCCC4)cc3)cc2)cs1 [Example 268, 2,2-dimethylpropionyloxymethyl 4-((N-(4-(4-(4-cyclohexylbenzyloxy)phenyl)-2-thiazolyl)-N-methylamino)methyl)benzoate] | – | – | –
– | 75 to 79 °C | CC(OC(=O)OC1CCCCC1)OC(=O)c1ccc(CN(C)c2nc(-c3ccc(OCc4ccc(C5CCCCC5)cc4)cc3)cs2)cc1 (centres unmarked) [Example 272, 1-cyclohexyloxycarbonyloxyethyl 4-((N-(4-(4-(4-cyclohexylbenzyloxy)phenyl)-2-thiazolyl)-N-methylamino)methyl)benzoate] | – | – | –

Continued, compound first:

SMILES | IC50 [1] [µM] | melting point | inhibition in vivo at 0.3 mg/kg (male ob/ob mice) [%] | inhibition in vivo at 1 mg/kg (male ob/ob mice) [%] | inhibition in vivo at 3 mg/kg (male ob/ob mice) [%]
CN(Cc1ccc(C(=O)O)cc1)c1nc(-c2ccc(OCc3ccc(C4CCCCC4)cc3)cc2)cs1 [Example 2, potassium 4-(N-(4-(4-(4-cyclohexylbenzyloxy)phenyl)-2-thiazolyl)-N-methylaminomethyl)benzoate] | 0.22 | – | – | 37 | 47
CN(Cc1ccc([C@H]2CC[C@H](O)CC2)cc1)c1ccc(-c2csc(N(C)Cc3ccc(C(=O)O)cc3)n2)cc1 [Example 196, trans-4-((N-(4-(4-(N-(4-(4-hydroxycyclohexyl)benzyl)-N-methylamino)phenyl)-2-thiazolyl)-N-methylamino)methyl)benzoic acid] | 0.83 | 194 to 196 °C | – | – | -8
CN(Cc1ccc(C(=O)O)cc1)c1nc(-c2ccc(N(C)Cc3ccc(C(C)(C)C)cc3)c(Cl)c2)cs1 [Example 244, 4-((N-(4-(4-(N-(4-tert-butylbenzyl)-N-methylamino)-3-chlorophenyl)-2-thiazolyl)-N-methylamino)methyl)benzoic acid] | – | 153 to 154 °C | – | – | –
CN(Cc1ccc(C2CCCCC2)cc1)c1ccc(-c2csc(NCc3ccc(C(=O)O)cc3)n2)cc1 [Example 247, 4-((4-(4-(N-(4-cyclohexylbenzyl)-N-methylamino)phenyl)-2-thiazolylamino)methyl)benzoic acid] | – | 209 °C (dec.) | – | – | –
CC(=O)OC(C)OC(=O)c1ccc(CN(C)c2nc(-c3ccc(OCc4ccc(C5CCCCC5)cc4)cc3)cs2)cc1 (centres unmarked) [Example 250, 1-acetoxyethyl 4-((N-(4-(4-(4-cyclohexylbenzyloxy)phenyl)-2-thiazolyl)-N-methylamino)methyl)benzoate] | – | 116 to 117 °C | – | – | –
CN(c1ccc(C(=O)[O-])cc1)c1nc(-c2ccc(NCc3ccc(C4CCCCC4)cc3)cc2)cs1.[Na+] [Example 263, sodium 4-(N-(4-(4-(4-cyclohexylbenzylamino)phenyl)-2-thiazolyl)-N-methylamino)benzoate] | – | 260 °C | – | – | –
CN(Cc1ccc(C(=O)OCC(=O)OC(C)(C)C)cc1)c1nc(-c2ccc(OCc3ccc(C4CCCCC4)cc3)cc2)cs1 [Example 267, tert-butoxycarbonylmethyl 4-((N-(4-(4-(4-cyclohexylbenzyloxy)phenyl)-2-thiazolyl)-N-methylamino)methyl)benzoate] | – | 122 to 123 °C | – | – | –
CCOC(=O)OC(C)OC(=O)c1ccc(CN(C)c2nc(-c3ccc(OCc4ccc(C5CCCCC5)cc4)cc3)cs2)cc1 (centres unmarked) [Example 269, 1-ethoxycarbonyloxyethyl 4-((N-(4-(4-(4-cyclohexylbenzyloxy)phenyl)-2-thiazolyl)-N-methylamino)methyl)benzoate] | – | 99 to 101 °C | – | – | –
CC(=O)OCOC(=O)c1ccc(CN(C)c2nc(-c3ccc(OCc4ccc(C5CCCCC5)cc4)cc3)cs2)cc1 [Example 270, acetoxymethyl 4-((N-(4-(4-(4-cyclohexylbenzyloxy)phenyl)-2-thiazolyl)-N-methylamino)methyl)benzoate] | – | 100 to 104 °C | – | – | –
CC(C)OC(=O)OC(C)OC(=O)c1ccc(CN(C)c2nc(-c3ccc(OCc4ccc(C5CCCCC5)cc4)cc3)cs2)cc1 (centres unmarked) [Example 271, 1-isopropoxycarbonyloxyethyl 4-((N-(4-(4-(4-cyclohexylbenzyloxy)phenyl)-2-thiazolyl)-N-methylamino)methyl)benzoate] | – | 76 to 84 °C | – | – | –
Cc1oc(=O)oc1COC(=O)c1ccc(CN(C)c2nc(-c3ccc(OCc4ccc(C5CCCCC5)cc4)cc3)cs2)cc1 [Example 273, 5-methyl-2-oxo-1,3-dioxl-4-ylmethyl 4-((N-(4-(4-(4-cyclohexylbenzyloxy)phenyl)-2-thiazolyl)-N-methylamino)methyl)benzoate] | – | 87 to 92 °C | – | – | –
